Reference: US11873298B2, “Compounds and uses thereof” (JANSSEN PHARMACEUTICA NV, priority 2017, dated 2024)
pIC50: −log10 of the molar value. “And” between values parts separate entries of the source, which are not always exact repeats. Identical values can stand only once.

What was measured:
Assay type in all cases: cell-based
Ole1 = biological target: T1, Ole1 (Saccharomyces cerevisiae, UniProt P21147); assay: Growth inhibition of yeast strain expressing Ole1 as sole desaturase; details: for pIC50 / OLE1 % Max Inhibition: yeast strain expressing Ole1 as sole desaturase; for growth of yeast expressing OLE1 in presence of inhibitor: FIG. 6
T1 construct: expressed in transfected cells; host or cells: S. cerevisiae ole1Δ strain (W303 pdr1Δ pdr3Δ background), plasmid pRS316 with TDH3 promoter and CYC1 terminator
T1 sequence (P21147 1-510): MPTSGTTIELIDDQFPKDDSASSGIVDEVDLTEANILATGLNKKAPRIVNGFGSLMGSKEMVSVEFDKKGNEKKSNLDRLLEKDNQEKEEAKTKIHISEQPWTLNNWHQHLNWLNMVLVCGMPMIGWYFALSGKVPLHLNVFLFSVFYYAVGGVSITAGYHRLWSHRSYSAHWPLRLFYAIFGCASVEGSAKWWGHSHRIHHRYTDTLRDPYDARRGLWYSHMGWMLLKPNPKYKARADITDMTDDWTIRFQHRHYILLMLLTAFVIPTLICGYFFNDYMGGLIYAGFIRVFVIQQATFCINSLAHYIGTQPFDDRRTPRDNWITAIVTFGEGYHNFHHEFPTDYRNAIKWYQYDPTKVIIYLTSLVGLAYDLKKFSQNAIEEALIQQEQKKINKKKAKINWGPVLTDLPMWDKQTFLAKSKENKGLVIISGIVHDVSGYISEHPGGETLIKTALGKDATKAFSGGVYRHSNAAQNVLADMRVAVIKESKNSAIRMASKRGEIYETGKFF
Procedure, shortened: (§1)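 Yeast ole1Δ strain (W303 pdr1Δ pdr3Δ background) carrying plasmid-borne Ole1, SCD1 or SCD5 as sole desaturase was grown in uracil-lacking media, pre-cultured in raffinose for 6 h, then seeded in galactose medium with compound in DMSO. Growth was read as OD600 after 30° C. incubation: 24 h for Ole1, 40 h for SCD1/SCD5.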

SCD1 = biological target: T2, SCD1 (Homo sapiens, UniProt O00767); assay: Growth inhibition of humanized yeast strain expressing SCD1 as sole desaturase; details: for pIC50 / SCD1 % Max Inhibition: humanized yeast strain expressing SCD1; for half-maximal inhibitory concentration (IC50): SCD1 humanized strain, FIG. 6
T2 construct: host or cells: S. cerevisiae ole1Δ strain (W303 pdr1Δ pdr3Δ background), plasmid pRS316 with TDH3 promoter and CYC1 terminator
T2 sequence (O00767 1-359): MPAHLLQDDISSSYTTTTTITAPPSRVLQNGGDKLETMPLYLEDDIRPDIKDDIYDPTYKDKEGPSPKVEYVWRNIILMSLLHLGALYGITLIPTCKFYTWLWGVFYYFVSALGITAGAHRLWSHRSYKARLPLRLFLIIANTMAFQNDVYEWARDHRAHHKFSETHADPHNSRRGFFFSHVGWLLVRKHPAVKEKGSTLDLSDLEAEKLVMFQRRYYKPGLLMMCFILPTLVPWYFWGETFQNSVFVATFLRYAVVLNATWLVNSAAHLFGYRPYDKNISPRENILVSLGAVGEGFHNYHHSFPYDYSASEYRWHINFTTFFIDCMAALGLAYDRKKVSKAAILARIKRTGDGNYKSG
Procedure, shortened: as §1

SCD5 = biological target: T3, SCD5 (Homo sapiens, UniProt Q86SK9); assay: Growth inhibition of humanized yeast strain expressing SCD5 as sole desaturase; details: for pIC50 / SCD5 % Max Inhibition: humanized yeast strain expressing SCD5; for half-maximal inhibitory concentration (IC50): SCD5 humanized strain, FIG. 6
T3 construct: host or cells: S. cerevisiae ole1Δ strain (W303 pdr1Δ pdr3Δ background), plasmid pRS316 with TDH3 promoter and CYC1 terminator
T3 sequence (Q86SK9 1-330): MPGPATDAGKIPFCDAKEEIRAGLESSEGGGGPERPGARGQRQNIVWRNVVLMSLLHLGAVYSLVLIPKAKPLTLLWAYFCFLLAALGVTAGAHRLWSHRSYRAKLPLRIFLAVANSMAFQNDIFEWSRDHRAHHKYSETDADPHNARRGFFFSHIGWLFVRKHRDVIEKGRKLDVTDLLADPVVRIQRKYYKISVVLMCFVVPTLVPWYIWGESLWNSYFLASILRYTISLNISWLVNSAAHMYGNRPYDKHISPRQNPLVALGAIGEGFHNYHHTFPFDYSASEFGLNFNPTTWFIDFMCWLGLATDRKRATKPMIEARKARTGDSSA
Procedure, shortened: as §1

| Structure (SMILES) | pIC50 (Ole1) | OLE1 % Max Inhibition (Ole1) | pIC50 (SCD1) | SCD1 % Max Inhibition (SCD1) | pIC50 (SCD5) | SCD5 % Max Inhibition (SCD5) | growth of yeast expressing OLE1 in presence of inhibitor (Ole1) | half-maximal inhibitory concentration (IC50) (SCD1) | half-maximal inhibitory concentration (IC50) (SCD5) |
| --- | --- | --- | --- | --- | --- | --- | --- | --- | --- |
| Cc1ccc(N2CC(C(=O)N3CCC(c4nc(N5CC6(COC6)C5)no4)CC3)CC2=O)nc1 (stereo not drawn) [Compound 333] | < 4.35 | 81.2% | < 4.35 | 55.6% | < 4.35 | 62.3% | – | – | – |
| Cn1c(=O)n(C)c2cc(-c3noc(C4CCN(C(=O)CNC(=O)c5ccccn5)CC4)n3)ccc21 [Compound 230] | < 4.35 | 2.63% | < 4.35 | 78.48% | < 4.35 | 44.00% | – | – | – |
| Cc1nn(C)c2cc(-c3noc(C4CCN(C(=O)c5ccc(Cl)cc5)CC4)n3)ccc12 [Compound 291] | < 4.35 | – | – | 5.0% and 0.30% | < 4.35 | 8.5% and 3.29% | – | – | – |
| O=C(C1CC(=O)N(c2ccccc2)C1)N1CCC(c2nc(-c3ccc4c(c3)COC4)no2)CC1 (stereo not drawn) [Compound 220] | < 4.35 | 3.10% | < 4.35 | 87.27% | < 4.35 | 13.65% | – | – | – |
| CCOc1ccc(-c2noc(C3CCN(C(=O)C4CN(c5ccccc5)C(=O)CO4)CC3)n2)cc1OC (stereo not drawn) [Compound 235] | < 4.35 | 84.04% | < 4.35 | 74.46% | < 4.35 | 87.47% | – | – | – |
| Cc1nn(C)c2cc(-c3noc(C4CCN(C(=O)c5ccccc5C(F)(F)F)CC4)n3)ccc12 [Compound 283] | < 4.35 | 24.43% | 4.46 | 34.91% | < 4.35 | 9.83% | – | – | – |
| CC(C)n1cc2ccc(-c3noc(C4CCN(C(=O)OC(C)(C)C)CC4)n3)cc2n1 [Compound 277] | < 4.35 | 94.36% | – | 76.49% | < 4.35 | 74.99% | – | – | – |
| Cc1nn(C)c2cc(-c3noc(C4CCN(S(=O)(=O)C(C)C)CC4)n3)ccc12 [Compound 279] | < 4.35 | 83.07% | – | 43.86% | < 4.35 | 21.97% | – | – | – |
| CCN1C(=O)CC(C)c2ccc(-c3noc(C4CCN(C(=O)CNC(=O)c5ccccc5)CC4)n3)cc21 (stereo not drawn) [Compound 298] | < 4.35 | 6.6% | < 4.35 | 92.3% | < 4.35 | 21.3% | – | – | – |
| Cn1c(=O)n(C)c2cc(-c3noc(C4CCN(C(=O)[C@@H](CO)NC(=O)c5ccccc5)CC4)n3)ccc21 [Compound 214] | < 4.35 | 15.08% | – | 65.73% | < 4.35 | 74.58% | – | – | – |
| O=C(NCC(=O)N1CCC(c2nc(-c3ccc4nonc4c3)no2)CC1)c1ccccc1 [Compound 163] | < 4.35 | 71.84% | 4.44 | 55.99% | < 4.35 | 24.77% | – | – | – |
| Cc1nn(C)c2cc(-c3noc(C4CCN(C(=O)[C@H]5CC(=O)N(c6cccc(C#N)c6)C5)CC4)n3)ccc12 [Compound 305] | < 4.35 | 6.6% and 4.23% | ≤ 4.35 | 73.2% and 55.27% | < 4.35 | – | – | – | – |
| Cc1c2ccc(-c3noc(C4CCN(C(=O)CNC(=O)c5ccccc5)CC4)n3)cc2nn1C(C)C [Compound 289] | < 4.35 | 45.87% | – | 62.01% | < 4.35 | 77.71% | – | – | – |
| Cc1nnc(-c2ccc(N3CCC(Oc4ccccc4C(F)(F)F)CC3)nn2)s1 [MF-438, reference compound] | – | – | – | – | – | – | resistant | low nanomolar | low nanomolar |
| CCOc1ccc(-c2noc(C3CCN(C(=O)CN4Cc5c(F)cccc5C4=O)CC3)n2)cc1OC [Compound 175] | < 4.35 | 3.00% | < 4.35 | 77.47% | < 4.35 | 77.96% | – | – | – |
| CC(C)n1ncc2ccc(-c3noc(C4CCN(C(=O)C5CC(=O)N(c6ccccc6)C5)CC4)n3)cc21 (stereo not drawn) [Compound 174] | < 4.35 | 89.17% | < 4.35 | 79.07% | < 4.35 | 10.95% | – | – | – |
| CCOc1ccc(-c2noc(C3CCN(C(=O)CN4Cc5ccc(F)cc5C4=O)CC3)n2)cc1OC [Compound 177] | < 4.35 | 40.70% | < 4.35 | 97.88% | < 4.35 | 86.13% | – | – | – |
| Cc1nn(C)c2cc(-c3noc(C4CCN(C(=O)[C@@H]5CC(=O)N(c6ccc(C#N)cc6)C5)CC4)n3)ccc12 [Compound 308] | < 4.35 and 4.57 | 63.7% and 49.30% | ≤ 4.35 | 81.6% and 61.05% | < 4.35 | 15.5% and 6.81% | – | – | – |
| Cc1nn(C)c2cc(-c3nc(C4CCN(C(=O)C5CC(=O)N(c6cccc(C#N)c6)C5)CC4)no3)ccc12 (stereo not drawn) [Compound 331] | < 4.35 | 13.7% | < 4.35 | 41.9% | < 4.35 | 24.9% | – | – | – |
| CCN1C(=O)CN(C)c2cc(-c3noc(C4CCN(C(=O)CNC(=O)c5ccccc5)CC4)n3)ccc21 [Compound 310] | < 4.35 | 7.1% | – | 71.2% | < 4.35 | 66.6% | – | – | – |
| Cc1c2cc(-c3noc(C4CCN(C(=O)c5ccc(C(C)C)cc5)CC4)n3)ccc2nn1C [Compound 318] | < 4.35 | 89.1% | < 4.35 | 77.6% | < 4.35 | 33.7% | – | – | – |
| CNC(=O)c1cccc(NC(=O)N2CCC(Oc3ccccc3Cl)CC2)c1 [Compound A939572, reference compound] | – | – | – | – | – | – | resistant | low nanomolar | low nanomolar |
| O=C(CN1Cc2ccccc2C1=O)N1CCC(c2nc(-c3ccc4c(c3)COC4)no2)CC1 [Compound 223] | < 4.35 | 2.22% | 4.39 | 68.23% | 4.39 | 67.37% | – | – | – |
| Cc1nn(C)c2cc(-c3noc(C4CCN(C(=O)CNC(=O)c5ccncc5)CC4)n3)ccc12 [Compound 198] | < 4.35 | 2.96% | < 4.35 | 71.25% | < 4.35 | 36.45% | – | – | – |
| Cn1c(=O)n(C)c2cc(-c3noc(C4CCN(C(=O)CNC(=O)c5ccncc5)CC4)n3)ccc21 [Compound 238] | < 4.35 | 4.93% | < 4.35 | 70.06% | 4.52 | 69.63% | – | – | – |
| Cc1nn(C)c2cc(-c3nc(C4CCN(C(=O)OC(C)(C)C)CC4)no3)ccc12 [Compound 319] | < 4.35 | 74.25% and 63.83% and 86.3% and 84.75% | ≤ 4.35 | 97.10% and 89.16% and 81.7% and 75.42% | < 4.35 | – | – | – | – |
